# In patent US8324395B2, “Heterocyclic compound and use thereof” (Takeda Pharmaceutical Company Limited, priority 2007, dated 2012):
# pIC50: −log10 of the molar value.
# Test system: Colon Cancer Cell HT-29 Intracellular MEK Phosphorylation
# Assay: Colon cancer cell HT-29 intracellular MEK phosphorylation inhibitory action in vitro
# Format: cell-based
# Settings: Homo sapiens; HT-29 cells, 2 hr treatment; phosphorylated MEK1/2 (Ser217/221) by Western blot
# Experimental: A cell suspension (500 μL) of human colon cancer cell HT-29 was plated in a 48-well plate (100,000 cells/well), and the cells were cultured overnight at 37° C. in the presence of 5% CO2, treated with a test compound (250 μL/well) diluted in 3-fold dilution series and cultured for two more hours. After 2 hr, the culture medium containing the test compound was removed, and the cells were lysed with SDS sample buffer (100 μL/well) and heated at 95° C. for 5 min. Thereafter, the cells were applied to SDS-PAGE, and the protein was transferred onto Sequi-Blot™ PVDF Membrane (Bio-Rad) by the Western blot method. The cells were blocked with a block-Ace solution (Snow Brand Milk Products Co., Ltd) dissolved in phosphate buffer to 5% W/V, and reacted overnight with anti-phosphorylated MEK1/2 (Ser217/221) (Cell signaling #9121) diluted 1000-fold with phosphate buffer containing 0.4% block-Ace. The membrane was washed with phosphate buffer containing 0.1% Tween 20 (Wako Pure Chemical Industries, Ltd.), and reacted at room temperature for 1 hr with HRP labeled […] (Cell signaling #7074) diluted 1000-fold with phosphate buffer containing 0.4% block-Ace. The membrane was washed in the same manner as above, chemical luminescence of a phosphorylated MEK1/2 protein labeled with the antibody, which was caused by ECL-plus Detection Reagent (Amersham bioscience), was detected by Luminescent Image Analyzer LAS-1000 (FUJIFILM Corporation). Taking the luminescence of the control group free of the test compound as 100%, the concentration (IC50 value) of the compound necessary for inhibiting the residual luminescence to 50% of the control group was calculated.
row,pIC50,SMILES
1,> 6.30,"Cc1ccc(Oc2ccc3nc(NC(=O)C4CC4)sc3c2)cc1NC(=O)c1cccc(C(C)(C)C#N)c1 [Example A7, 3-(1-cyano-1-methylethyl)-N-[5-({2-[(cyclopropylcarbonyl)amino]-1,3-benzothiazol-6-yl}oxy)-2-methylphenyl]benzamide]"
2,> 6.30,"Cc1ccc(Oc2ccc3nc(NC(=O)CO)sc3c2)cc1NC(=O)c1cccc(C(C)(C)C#N)c1 [Example A10, 3-(1-cyano-1-methylethyl)-N-(5-{[2-(glycoloylamino)-1,3-benzothiazol-6-yl]oxy}-2-methylphenyl)benzamide]"
3,> 6.30,"CC(C)(C#N)c1cccc(C(=O)Nc2cccc(Oc3ccc4nc(NC(=O)CO)sc4c3)c2)c1 [Example A14, 3-(1-cyano-1-methylethyl)-N-(3-{[2-(glycoloylamino)-1,3-benzothiazol-6-yl]oxy}phenyl)benzamide]"
4,> 6.30,"CN1CCN(CC(=O)Nc2nc3ccc(Oc4cccc(NC(=O)c5cccc(C6(C#N)CC6)c5)c4)cc3s2)CC1 [Example A16, 3-(1-cyanocyclopropyl)-N-{3-[(2-{[(4-methylpiperazin-1-yl)acetyl]amino}-1,3-benzothiazol-6-yl)oxy]phenyl}benzamide]"
5,> 6.30,"COc1ccc(NC(=O)c2cccc(C(C)(C)C#N)c2)cc1Oc1ccc2nc(NC(=O)C3CC3)sc2c1 [Example A21, 3-(1-cyano-1-methylethyl)-N-[3-({2-[(cyclopropylcarbonyl)amino]-1,3-benzothiazol-6-yl}oxy)-4-methoxyphenyl]benzamide]"
6,> 6.30,"O=C(CO)Nc1nc2ccc(Oc3cccc(C(=O)Nc4ccc(C(F)(F)F)cc4)c3)cc2s1 [Example A26, 3-{[2-(glycoloylamino)-1,3-benzothiazol-6-yl]oxy}-N-[4-(trifluoromethyl)phenyl]benzamide]"
7,> 6.30,"CC(C)(C#N)c1cccc(C(=O)Nc2cccc(Oc3ccc4nc(NC(=O)C5CC5)oc4c3)c2)c1 [Example B3, 3-(1-cyano-1-methylethyl)-N-[3-({2-[(cyclopropylcarbonyl)amino]-1,3-benzooxazol-6-yl}oxy)phenyl]benzamide]"

# Biological target: T1, BRAF (V600E) kinase (Homo sapiens, UniProt P15056, V600E)
# T1 construct: Flag (N); made in house; host or cells: SF-21 insect cells, recombinant baculovirus BAC-V600E
# T1 sequence (P15056 457-717 V600E limits assumed): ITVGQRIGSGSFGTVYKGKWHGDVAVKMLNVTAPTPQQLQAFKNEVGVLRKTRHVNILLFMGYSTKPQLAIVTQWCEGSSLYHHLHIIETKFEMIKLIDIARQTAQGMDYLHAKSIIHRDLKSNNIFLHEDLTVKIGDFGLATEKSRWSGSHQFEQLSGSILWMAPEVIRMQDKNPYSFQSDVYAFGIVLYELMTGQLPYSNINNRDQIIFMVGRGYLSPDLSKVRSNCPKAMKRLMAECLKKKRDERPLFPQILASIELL
# Assay: Determination of BRAF (V600E) kinase inhibitory activity
# Format: biochemical
# Settings: 1.0 μM test compound; BRAF (V600E) enzyme, GST-MEK1 (K96R) substrate, [γ-32P]ATP; read-out: Inhibitory rate (%) at 1.0 μM
# Experimental: Human BRAF gene was cloned by PCR using human Testis cDNA library (Clontech) as a template. The primer used for PCR was prepared from base sequence (Genbank Accession No.: NM_004333) information of BRAF gene by adding a base sequence encoding flag peptide and a recognition sequence of the restriction enzyme to area encoding the BRAF kinase domain region, so that the protein contains an N-terminal. Flag. The primer base sequence is shown below.
# The PCR reaction was conducted using Pyrobest (Takara Shuzo Co., Ltd). The obtained PCR product was electrophoresed on agarose gel (1%), the DNA fragment amplified by PCR was recovered from the gel, and then digested with restriction enzymes EcoRI and SalI. The DNA treated with the restriction enzymes was electrophoresed on agarose gel (1%), and the obtained DNA fragment was recovered. The recovered DNA fragment was ligated to plasmid pFASTBAC1 (Invitrogen) digested with restriction enzymes EcoRI and SalI to give expression plasmid pFB-BRAF, and the base sequence of the insert fragment was confirmed. In addition, mutation was introduced into V600E using a Quick change Site Directed Mutagenesis kit (Stratagene). The base sequences of the primers used are shown in the following.
# The obtained plasmid was sequenced to confirm the introduction of mutation into V600E. The DNA was digested with restriction enzymes EcoRI and SalI, DNA treated with the restriction enzymes was electrophoresed on agarose gel (1%), and the obtained DNA fragment was recovered. The recovered DNA fragment was ligated to plasmid pFASTBAC1 (Invitrogen) digested with restriction enzymes EcoRI and SalI to give expression plasmid pFB-V600E.
# Using BAC-TO-BAC Baculovirus Expression System (Invitrogen), virus stock BAC-V600E of recombinant baculovirus was prepared.
# SF-21 cells were sown at 1×10^6 cells/mL to Sf-900II SFM medium (1 L, Invitrogen) containing 10% fetal bovine serum (Trace), 50 mg/L Gentamicin (Invitrogen) and 0.1% Pluronic F-68 (Invitrogen), and shaking culture was performed using a 2 L volume Erlenmeyer flask at 27° C., 100 rpm. After culturing for 24 hr, recombinant baculovirus BAC-V600E (13.4 mL) was added to the mixture, and the mixture was further cultured for 3 days. The culture medium was centrifuged at 2,000 rpm for 5 min to give virus-infected cells. The infected cells were washed with a phosphate buffered saline (Invitrogen), centrifuged under the same conditions, and the cells were preserved at −80° C. The cryopreserved cells were thawed in ice, suspended in buffer A (50 mM Tris buffer (30 mL, pH 7.4) containing 20% glycerol, 0.15 M NaCl) supplemented with Complete Protease Inhibitor (Boehringer), and ruptured 3 times with a Polytron homogenizer (Kinematica) at 20,000 rpm for 30 sec. The ruptured medium was clarified by centrifugation at 40,000 rpm for 30 min and filtered with a 0.45 μm filter. The filtrate was passed through a column packed with Anti-FLAG M2 Affinity Gel (4 mL, Sigma) at a flow rate of about 0.5 mL/min. The column was washed with buffer A, and eluted with buffer A containing 100 μg/mL of FLAG peptide. The buffer of this eluate was exchanged using NAP25 column (Amersham Bioscience) equilibrated with buffer A and the fractions were cryopreserved at −80° C.
# A test compound (2.5 μL) dissolved in dimethyl sulfoxide (DMSO) was added to 37.5 μL of a reaction mixture (25 mM HEPES (pH 7.5), 10 mM magnesium acetate, 1 mM dithiothreitol) containing BRAF (V600E) enzyme (30 ng) and recombinant type protein GST-MEK1 (K96R) 250 ng, and the mixture was incubated at room temperature for 10 min. ATP solution (10 μL, 2.5 μM ATP, 0.1 μCi [γ-^32P]ATP) was added to the obtained mixture, and the mixture was reacted at room temperature for 20 min. The reaction was quenched by adding 50 μL of ice-cooled. 20% trichloroacetic acid (Wako Pure Chemical Industries, Ltd.) to the reaction mixture. […]
row,inhibition at 1 µM,SMILES
1,98%,"N#CC1(c2cccc(C(=O)Nc3cccc(Oc4ccc5nc(NC(=O)C6CC6)sc5c4)c3)c2)CC1 [Example A1, 3-(1-cyanocyclopropyl)-N-[3-({2-[(cyclopropylcarbonyl)amino]-1,3-benzothiazol-6-yl}oxy)phenyl]benzamide]"
2,99%,"Cc1ccc(Oc2ccc3nc(NC(=O)CO)sc3c2)cc1NC(=O)c1cccc(C2(C#N)CC2)c1 [Example A6, 3-(1-cyanocyclopropyl)-N-(5-{[2-(glycoloylamino)-1,3-benzothiazol-6-yl]oxy}-2-methylphenyl)benzamide]"
3,100%,"N#CC1(c2cccc(C(=O)Nc3cccc(Oc4ccc5nc(NC(=O)c6cocn6)sc5c4)c3)c2)CC1 [Example A15, N-[6-(3-{[3-(1-cyanocyclopropyl)benzoyl]amino}phenoxy)-1,3-benzothiazol-2-yl]-1,3-oxazole-4-carboxamide]"
4,98%,"COc1ccc(NC(=O)c2cccc(C(C)(C)C#N)c2)cc1Oc1ccc2nc(NC(=O)C3CC3)sc2c1 [Example A21, 3-(1-cyano-1-methylethyl)-N-[3-({2-[(cyclopropylcarbonyl)amino]-1,3-benzothiazol-6-yl}oxy)-4-methoxyphenyl]benzamide]"
5,100%,"O=C(Nc1ccc(C(F)(F)F)cc1)c1cccc(Oc2ccc3nc(NC(=O)C4CC4)sc3c2)c1 [Example A25, 3-({2-[(cyclopropylcarbonyl)amino]-1,3-benzothiazol-6-yl}oxy)-N-[4-(trifluoromethyl)phenyl]benzamide]"
6,100%,"O=C(Nc1cccc(C(F)(F)F)c1)c1cccc(Oc2ccc3nc(NC(=O)C4CC4)sc3c2)c1 [Example A29, 3-({2-[(cyclopropylcarbonyl)amino]-1,3-benzothiazol-6-yl}oxy)-N-[3-(trifluoromethyl)phenyl]benzamide]"
7,100%,"O=C(Nc1cccc(Oc2ccc3nc(NC(=O)C4CC4)oc3c2)c1)c1cccc(C(F)(F)F)c1 [Example B1, N-[3-({2-[(cyclopropylcarbonyl)amino]-1,3-benzooxazol-6-yl}oxy)phenyl]-3-(trifluoromethyl)benzamide]"
8,99%,"O=C(Nc1cccc(Oc2ccc3nc(NC(=O)C4CC4)[nH]c3c2)c1)c1cccc(C(F)(F)F)c1 [Example C1, N-[3-({2-[(cyclopropylcarbonyl)amino]-1H-benzimidazol-6-yl}oxy)phenyl]-3-(trifluoromethyl)benzamide]"

# Test system: human colon cancer cell HT-29
# Assay: Colon cancer cell HT-29 growth suppressive action in vitro
# Format: cell-based
# Settings: 72 h, HT-29 cells, 3 days culture, SRB staining of cell protein
# Experimental: A cell suspension (100 μL, 3,000 cells/well) of human colon cancer cell HT-29 (purchased from ATCC) was plated in a 96-well plate, and the cells were cultured at 37° C. in a 5% carbon dioxide gas incubator. The next day, 2-fold serial dilution of each test compound solution (diluted from maximum concentration 20 μM) (100 μL) was added, and the cells were cultured for 3 days. The culture medium containing the test compound was removed, and the cells were washed with phosphate buffer (PBS). A 50% trichloroacetic acid solution was added to the final concentration of 10% (v/v), and the mixture was stood overnight at 4° C., whereby the cells were fixed to the plate. Then, a dye SRB 0.4% (w/v) solution (dissolved in 1% acetic acid) was added at 50 μl/well, whereby the cell protein was fixed and stained (Skehan et al., Journal Of National Cancer Institute, vol. 82, pp. 1107-1112, 1990). The cells were washed 3 times with 1% acetic acid solution (200 μL/well), and 100 μL of an extract (10 mM Tris buffer) was added to extract the dye. The absorbance at an absorption wavelength […] was measured, and cell amount was measured as a protein amount. Taking the protein amount of the control group free of the test compound solution as 100%, the proportion of the residual protein amount of each treatment group was determined and the concentration of the compound necessary for suppressing the residual cell amount to 50% of the control (IC50 value) was calculated.
row,pIC50,SMILES
1,> 6.30,"O=C(Nc1cccc(Oc2ccc3nc(NC(=O)C4CC4)sc3c2)c1)c1cccc(C(F)(F)F)c1 [Example A2, N-[3-({2-[(cyclopropylcarbonyl)amino]-1,3-benzothiazol-6-yl}oxy)phenyl]-3-(trifluoromethyl)benzamide]"
2,> 6.30,"CN1CCN(CC(=O)Nc2nc3ccc(Oc4cccc(NC(=O)c5cccc(C(C)(C)C#N)c5)c4)cc3s2)CC1 [Example A13, 3-(1-cyano-1-methylethyl)-N-{3-[(2-{[(4-methylpiperazin-1-yl)acetyl]amino}-1,3-benzothiazol-6-yl)oxy]phenyl}benzamide]"
